Measured values taken from patent US11242365B2, “FOXM1-derived peptide, and vaccine including same” (OncoTherapy Science, Inc., priority 2015, dated 2022).
Entries after “also recorded” stand apart in the source; their conditions may differ.

What was measured:
[1] = test system: COS7 cells expressing FOXM1 and HLA-A*01:01; assay: IFN-gamma production of CTL clone against target cells expressing FOXM1 and HLA-A*01:01; assay type: cell-based, African green monkey
Excerpt: A cDNA encoding the FOXM1 or HLA-A*01:01 gene was amplified by PCR. The PCR-amplified product was each incorporated into an expression vector. Either or both of the FOXM1 gene-expressing vector and the HLA-A*01:01 gene-expressing vector were introduced into COS7 cells, which is a cell line negative for HLA, using Lipofectamine 2000 (Invitrogen). On the day after gene introduction, COS7 cells were detached and harvested using versene (Invitrogen), and used as the target cell for confirmation of IFN-gamma production (5×10^4 cells/well).
IFN-gamma production of the FOXM1-A01-10-566 (SEQ ID NO: 56)-specific CTL clone against target cells expressing FOXM1 and HLA-A*01:01 was investigated. COS7 cells expressing both FOXM1 and HLA-A*01:01 were prepared as the target cell. COS7 cells expressing either one of FOXM1 and HLA-A*01:01 were prepared as the negative control cell. […] This clearly proves that FOXM1-A01-10-566 (SEQ ID NO: 56) is a peptide generated by antigen processing, and is presented on the cell surface with the HLA-A*01:01 molecule and recognized by CTLs.

[2] = test system: target cells (C1R-A01) pulsed with peptide; assay: IFN-gamma ELISA of CTL lines (HLA-A*01:01); assay type: cell-based, human; details: CTL line against peptide-pulsed C1R-A01; listed as FOXM1-A01-10-566
Experimental: CTLs were propagated using methods similar to those reported by Riddell et al. (Walter E A et al., N Engl J Med 1995, 333(16): 1038-44; Riddell S R et al., Nat Med 1996, 2(2): 216-23). The CTLs were cultured in 25 ml 5% ABS/AIM-V medium together with two types of Mitomycin C-treated human B lymphoblastoid cell lines (5×10^6 cells/25 ml medium each) and an anti-CD3 antibody (final concentration: 40 ng/ml). On the day after beginning of the culturing, IL-2 (final concentration: 120 IU/ml) was added to the culture. On days 5, 8 and 11, the medium was changed to a 5% ABS/AIM-V medium containing IL-2 (final concentration: 30 IU/ml) (Tanaka H et al., Br J Cancer 2001, 84(1): 94-9; Umano Y et al., Br J Cancer 2001, 84(8): 1052-7; Uchida N et al., Clin Cancer Res 2004, 10(24): 8577-86; Suda T et al., Cancer Sci 2006, 97(5): 411-9; Watanabe T et al., Cancer Sci 2005, 96(8): 498-506).
(§1) Peptide-pulsed C1R-A01 (1×10^4 cells/well) was prepared as the target cell. The IFN-gamma ELISPOT assay and IFN-gamma ELISA were performed according to the assay kit manufacturer's manual.

[3] = test system: target cells (C1R-A01) pulsed with peptide; assay: IFN-gamma ELISA of CTL clones established by limiting dilution (HLA-A*01:01); assay type: cell-based, human; details: CTL clone against peptide-pulsed C1R-A01; listed as FOXM1-A01-10-566
Experimental: After induction of CTLs in vitro, the CTLs were seeded onto 96-well round-bottomed microplates (Nalge Nunc International) at 1 cell/well or 10 cells/well. The CTLs were cultured with two types of Mitomycin C-treated human B lymphoblastoid cell lines (1×10^4 cells/well each) in a total of 150 micro-l/well 5% ABS/AIM-V medium with an anti-CD3 antibody (final concentration: 30 ng/ml) and IL-2 (final concentration: 125 IU/ml). Ten days later, 50 micro-l 5% ABS/AIM-V medium containing 500 IU/ml IL-2 was added to the culture.
as §1

SSDPASOLSY (SSDPASQLSY; a peptide derived from FOXM1) [SEQ ID NO: 56]
IFN-gamma production of peptide-specific CTL clone ([1]; COS7 cells expressing both FOXM1 and HLA-A*01:01): showed IFN-gamma production
IFN-gamma production of peptide-specific CTL clone ([1]; negative control: COS7 cells expressing either one of FOXM1 and HLA-A*01:01, listed as FOXM1-A01-10-566): a significant IFN-gamma production was not observed; also recorded: a significant IFN-gamma production was not shown
IFN-gamma production by the CTL line (ELISA) [2]: observed; also recorded: CTL line that produce IFN-gamma in a peptide-specific manner was established
peptide-specific IFN-gamma production of CTL clone (ELISA) [3]: showed a peptide-specific IFN-gamma production
